In patent publication US7666890B2, “Synthesis and herbicidal activity of 1- (2-substituted benzo[d]thiazol-5-yl)-1H-1,2,4-triazol-5(4H)-one derivatives” (Huazhong Normal University, priority 2007, dated 2010):

Key:
Experiment in all cases: Test of herbicidal activities (greenhouse pot method)
Format in all cases: in vivo
Conditions in all cases: single dose 300 g ai./h, treated before/after germination, 15 days later, greenhouse pot
[1] = tested on: Amaranthus retroflexus
Protocol: (§1) Garden soil was collected from regions where no pesticide is used and mixed uniformly with mountain soil and organic humus soil at a volume ratio of 1:1:1.
(§2) Multiple flowerpots each having a diameter of 9.5 cm and a depth of 8 cm were filled with the soil mixture to 3/4 volume. After water was added to the soil and the soil was completely wet, seeds of three grass weeds and three broadleaf weeds were inserted into the flowerpots (10-15 seeds for each weed). After seeding, the seeds were covered with fine oil mixed with sand and having a thickness of 1-3 cm. After the soil absorbed enough water and became saturated, excess water at the bottom of the flowerpot was drained, and the seeds were placed in a greenhouse for growth.
(§3) The weeds were watered every day so as to keep relative humidity of the soil at approximately 80%, growing temperature of 15-30° C., and air humidity above 50%. As the grass weeds grew to a 2-leaf stage and the broadleaf weeds was in a leaf period, spraying operation […] was performed on the stems and leafs. Planting before germination was performed before spraying. Soil processing was performed before the seeds of the weeds emerged.
(§4) Six target weeds comprising three grass weeds: Echinochloa crusgalli, Digiatria sanguinalis, Setaria viridis, along with three broadleaf weeds: Brassica juncea, Amaranthus retroflexus, Chenopodium album were treated before/after germination using a so-called “greenhouse pot” method with a single dose. A treating dose was 300 g ai./h. The process was repeated three times, and a blank control was used.
(§5) A 3WPSHZ-500 type automatic spraying tower with a spraying area of 0.132 m^2, a spray volume of 10 mL, working pressure of 0.2 MPa, and a liquid volume of 40% of maximum was used. After treatment, the weeds were placed in a greenhouse at a temperature of 15-30° C. Reaction symptoms of the weeds were regularly observed, and 15 days later, five reaction levels were determined according to the following inhibition intervals: 90≦A≦100%; 80≦B<90%, 60≦C<80%; 50≦D<60%, E<50%.

[2] = tested on: Brassica juncea
Protocol: as §1, §2, §3, §4, §5

[3] = tested on: Chenopodium album
Protocol: as §1, §2, §3, §4, §5

[4] = tested on: Digiatria sanguinalis
Protocol: as §1, §2, §3, §4, §5

[5] = tested on: Echinochloa crusgalli
Protocol: as §1, §2, §3, §4, §5

[6] = tested on: Setaria viridis
Protocol: as §1, §2, §3, §4, §5

| SMILES | Herbicidal activity Amaranthus retroflexus (inhibition level) [1] | Herbicidal activity Brassica juncea (inhibition level) [2] | Herbicidal activity Chenopodium album (inhibition level) [3] | Herbicidal activity Digiatria sanguinalis (inhibition level) [4] | Herbicidal activity Echinochloa crusgalli (inhibition level) [5] | Herbicidal activity Setaria viridis (inhibition level) [6] | inhibition at 300 g/ha ([1]; Amaranthus retroflexus, 360 h, read-out: Herbicidal activity Amaranthus retroflexus (inhibition level)) [%] | inhibition at 300 g/ha ([2]; Brassica juncea, 360 h, read-out: Herbicidal activity Brassica juncea (inhibition level)) [%] | inhibition at 300 g/ha ([3]; Chenopodium album, 360 h, read-out: Herbicidal activity Chenopodium album (inhibition level)) [%] | inhibition at 300 g/ha ([4]; 360 h, read-out: Herbicidal activity Digiatria sanguinalis (inhibition level)) [%] | inhibition at 300 g/ha ([5]; Echinochloa crus-galli, 360 h, read-out: Herbicidal activity Echinochloa crusgalli (inhibition level)) [%] | inhibition at 300 g/ha ([6]; Setaria viridis, 360 h, read-out: Herbicidal activity Setaria viridis (inhibition level)) [%] |
| --- | --- | --- | --- | --- | --- | --- | --- | --- | --- | --- | --- | --- |
| CCOC(=O)CSc1nc2cc(-n3nc(C)n(C(F)F)c3=O)c(Br)cc2s1 [Compound 82] | A (90 ≦ A ≦ 100%) | B (80 ≦ B < 90%) | C (60 ≦ C < 80%) | A (90 ≦ A ≦ 100%) | A (90 ≦ A ≦ 100%) | A (90 ≦ A ≦ 100%) | – | – | – | – | – | – |
| Cc1nn(-c2cc3nc(SCc4csc(Cl)n4)sc3cc2F)c(=O)n1C(F)F [Compound 10] | B (80 ≦ B < 90%) | A (90 ≦ A ≦ 100%) | C (60 ≦ C < 80%) | C (60 ≦ C < 80%) | B (80 ≦ B < 90%) | C (60 ≦ C < 80%) | – | – | – | – | – | – |
| Cc1nn(-c2cc3nc(SCc4coc5ccccc5c4=O)sc3cc2Br)c(=O)n1C(F)F [Compound 28] | C (60 ≦ C < 80%) | A (90 ≦ A ≦ 100%) | C (60 ≦ C < 80%) | B (80 ≦ B < 90%) | B (80 ≦ B < 90%) | D (50 ≦ D < 60%) | – | – | – | – | – | – |
| Cc1ccc([N+](=O)[O-])c(CSc2nc3cc(-n4nc(C)n(C(F)F)c4=O)c(F)cc3s2)c1 [Compound 16] | C (60 ≦ C < 80%) | B (80 ≦ B < 90%) | C (60 ≦ C < 80%) | C (60 ≦ C < 80%) | C (60 ≦ C < 80%) | B (80 ≦ B < 90%) | – | – | – | – | – | – |
| Cc1nn(-c2cc3nc(S(=O)(=O)Cc4ccccc4)sc3cc2F)c(=O)n1C(F)F [Compound 51] | A (90 ≦ A ≦ 100%) | B (80 ≦ B < 90%) | B (80 ≦ B < 90%) | A (90 ≦ A ≦ 100%) | C (60 ≦ C < 80%) | A (90 ≦ A ≦ 100%) | – | – | – | – | – | – |
| Cc1nn(-c2cc3nc(SCc4ccc(F)cc4F)sc3cc2Cl)c(=O)n1C(F)F [Compound 8] | C (60 ≦ C < 80%) | C (60 ≦ C < 80%) | C (60 ≦ C < 80%) | B (80 ≦ B < 90%) | E (E < 50%) | C (60 ≦ C < 80%) | – | – | – | – | – | – |
| Cc1nn(-c2cc3nc(SCc4ccccc4)sc3cc2F)c(=O)n1C [Compound 30] | A (90 ≦ A ≦ 100%) | D (50 ≦ D < 60%) | C (60 ≦ C < 80%) | B (80 ≦ B < 90%) | E (E < 50%) | B (80 ≦ B < 90%) | – | – | – | – | – | – |
| Cc1nn(-c2cc3nc(S(=O)(=O)Cc4ccc(Br)cc4)sc3cc2Cl)c(=O)n1C(F)F [Compound 42] | A (90 ≦ A ≦ 100%) | C (60 ≦ C < 80%) | D (50 ≦ D < 60%) | A (90 ≦ A ≦ 100%) | E (E < 50%) | B (80 ≦ B < 90%) | – | – | – | – | – | – |
| Cc1nn(-c2cc3nc(SCc4cccc(Br)c4)sc3cc2F)c(=O)n1C(F)F [Compound 21] | A (90 ≦ A ≦ 100%) | B (80 ≦ B < 90%) | B (80 ≦ B < 90%) | B (80 ≦ B < 90%) | C (60 ≦ C < 80%) | E (E < 50%) | – | – | – | – | – | – |
| CCCS(=O)(=O)c1nc2cc(-n3nc(C)n(C)c3=O)c(F)cc2s1 [Compound 48, 1-(6-fluoro-2-(propylsulfonyl)benzo[d]thiazol-5-yl)-3,4-dimethyl-1H-1,2,4-triazol-5(4H)-one] | – | – | – | – | – | – | 80 to 90 | 80 to 90 | 50 to 60 | 80 to 90 | 80 to 90 | 60 to 80 |
| Cc1nn(-c2cc3nc(S(=O)(=O)Cc4ccccc4)sc3cc2Cl)c(=O)n1C(F)F [Compound 37] | C (60 ≦ C < 80%) | D (50 ≦ D < 60%) | A (90 ≦ A ≦ 100%) | C (60 ≦ C < 80%) | D (50 ≦ D < 60%) | E (E < 50%) | – | – | – | – | – | – |
| Cc1nn(-c2cc3nc(S(=O)(=O)Cc4cccc([N+](=O)[O-])c4)sc3cc2F)c(=O)n1C(F)F [Compound 50] | B (80 ≦ B < 90%) | C (60 ≦ C < 80%) | D (50 ≦ D < 60%) | A (90 ≦ A ≦ 100%) | B (80 ≦ B < 90%) | B (80 ≦ B < 90%) | – | – | – | – | – | – |
| Cc1ccccc1C[S+]([O-])c1nc2cc(-n3nc(C)n(C(F)F)c3=O)c(F)cc2s1 (stereo not drawn) [Compound 104] | A (90 ≦ A ≦ 100%) | A (90 ≦ A ≦ 100%) | A (90 ≦ A ≦ 100%) | C (60 ≦ C < 80%) | C (60 ≦ C < 80%) | C (60 ≦ C < 80%) | – | – | – | – | – | – |
